Assay results published in ChEMBL document CHEMBL3132769, “Fragment growing to retain or alter the selectivity of anchored kinase hinge-binding fragments” (Medchemcomm, 2014).

Experiments:
[1] = biological target: T1, Serine/threonine-protein kinase Sgk2 (Homo sapiens) (UniProt Q9HBY8); test: Inhibition of human full length SGK2 expressed in baculovirus assessed as substrate phosphorylation using fluorescence-labelled peptides as substrate at 95 uM after 90 mins by microfluidic peptide phosphorylation assay
T1 sequence (whole entry): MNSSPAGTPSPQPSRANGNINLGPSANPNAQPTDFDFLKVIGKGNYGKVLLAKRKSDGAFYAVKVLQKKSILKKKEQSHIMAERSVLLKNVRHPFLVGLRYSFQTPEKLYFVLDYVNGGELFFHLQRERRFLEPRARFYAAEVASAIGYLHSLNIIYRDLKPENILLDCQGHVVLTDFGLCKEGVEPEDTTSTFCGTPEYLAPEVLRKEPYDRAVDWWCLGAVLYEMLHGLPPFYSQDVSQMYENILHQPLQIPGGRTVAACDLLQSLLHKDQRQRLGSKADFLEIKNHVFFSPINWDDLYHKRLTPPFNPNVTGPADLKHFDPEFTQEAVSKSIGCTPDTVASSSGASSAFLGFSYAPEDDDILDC

[2] = biological target: T2, Testis-specific serine/threonine-protein kinase 1 (Homo sapiens) (UniProt Q9BXA7); test: Inhibition of human full length TSSK1 expressed in baculovirus assessed as substrate phosphorylation using fluorescence-labelled peptides as substrate at 0.2 uM after 90 mins by microfluidic peptide phosphorylation assay
T2 sequence (whole entry): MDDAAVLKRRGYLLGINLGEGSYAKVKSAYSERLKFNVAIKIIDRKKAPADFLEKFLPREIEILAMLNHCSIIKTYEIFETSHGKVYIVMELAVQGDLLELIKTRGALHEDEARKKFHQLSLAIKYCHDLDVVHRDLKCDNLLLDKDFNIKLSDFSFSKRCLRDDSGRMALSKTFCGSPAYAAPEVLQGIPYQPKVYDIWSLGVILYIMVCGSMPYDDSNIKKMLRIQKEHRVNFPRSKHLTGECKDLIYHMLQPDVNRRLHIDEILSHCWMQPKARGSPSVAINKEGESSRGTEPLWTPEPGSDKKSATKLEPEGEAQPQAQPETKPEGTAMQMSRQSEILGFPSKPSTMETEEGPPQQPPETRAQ

[3] = biological target: Rho-associated protein kinase 2 (Homo sapiens) (UniProt O75116); test: Inhibition of human ROCK2 catalytic domain expressed in baculovirus assessed as substrate phosphorylation using fluorescence-labelled peptides as substrate at 8 uM after 90 mins by microfluidic peptide phosphorylation assay
Rho-associated protein kinase 2 (Homo sapiens), sequence (O75116 whole entry, looked up, the tested form may be a part): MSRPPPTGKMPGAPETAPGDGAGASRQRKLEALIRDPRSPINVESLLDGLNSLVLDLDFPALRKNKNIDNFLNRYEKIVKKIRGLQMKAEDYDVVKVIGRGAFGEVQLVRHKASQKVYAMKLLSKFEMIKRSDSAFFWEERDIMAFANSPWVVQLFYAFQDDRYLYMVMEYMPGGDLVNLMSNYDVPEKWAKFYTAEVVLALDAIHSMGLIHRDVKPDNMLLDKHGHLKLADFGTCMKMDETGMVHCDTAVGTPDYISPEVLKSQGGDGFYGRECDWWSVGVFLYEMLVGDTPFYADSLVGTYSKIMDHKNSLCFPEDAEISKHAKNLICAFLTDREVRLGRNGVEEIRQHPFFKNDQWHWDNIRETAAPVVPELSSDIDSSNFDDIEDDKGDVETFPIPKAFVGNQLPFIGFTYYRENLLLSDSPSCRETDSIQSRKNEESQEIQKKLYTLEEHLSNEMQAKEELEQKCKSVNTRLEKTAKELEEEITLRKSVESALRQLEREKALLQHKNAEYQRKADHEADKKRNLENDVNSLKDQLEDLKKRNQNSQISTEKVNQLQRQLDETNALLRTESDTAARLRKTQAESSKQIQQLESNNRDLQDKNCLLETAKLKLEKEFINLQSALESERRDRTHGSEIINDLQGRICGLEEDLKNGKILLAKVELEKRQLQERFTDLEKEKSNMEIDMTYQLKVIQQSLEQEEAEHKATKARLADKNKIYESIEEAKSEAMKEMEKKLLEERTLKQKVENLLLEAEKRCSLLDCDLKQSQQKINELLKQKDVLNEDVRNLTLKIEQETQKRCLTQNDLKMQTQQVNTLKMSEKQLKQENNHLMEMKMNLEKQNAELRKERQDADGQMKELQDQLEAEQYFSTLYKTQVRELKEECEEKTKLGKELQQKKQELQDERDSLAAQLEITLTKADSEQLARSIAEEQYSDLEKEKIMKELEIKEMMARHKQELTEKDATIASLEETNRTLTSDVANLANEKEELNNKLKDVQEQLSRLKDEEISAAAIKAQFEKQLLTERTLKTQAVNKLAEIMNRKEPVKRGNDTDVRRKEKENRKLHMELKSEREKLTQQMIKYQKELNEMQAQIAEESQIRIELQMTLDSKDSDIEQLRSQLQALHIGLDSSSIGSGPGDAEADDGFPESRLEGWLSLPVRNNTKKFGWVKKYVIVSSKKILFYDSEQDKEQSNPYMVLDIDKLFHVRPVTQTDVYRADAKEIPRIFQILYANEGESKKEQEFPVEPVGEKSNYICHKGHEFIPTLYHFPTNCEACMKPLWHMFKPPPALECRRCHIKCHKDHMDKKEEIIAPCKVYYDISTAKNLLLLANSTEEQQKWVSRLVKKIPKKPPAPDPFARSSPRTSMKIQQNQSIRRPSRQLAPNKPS

[4] = biological target: T1, Serine/threonine-protein kinase Sgk2 (Homo sapiens); test: Inhibition of human full length SGK2 expressed in baculovirus assessed as substrate phosphorylation using fluorescence-labelled peptides as substrate at 8 uM after 90 mins by microfluidic peptide phosphorylation assay
[5] = biological target: Fibroblast growth factor receptor 4 (Homo sapiens) (UniProt P22455); test: Inhibition of human FGFR4 catalytic domain expressed in baculovirus assessed as substrate phosphorylation using fluorescence-labelled peptides as substrate at 1000 uM after 90 mins by microfluidic peptide phosphorylation assay
Fibroblast growth factor receptor 4 (Homo sapiens), sequence (P22455 22-802 limits assumed): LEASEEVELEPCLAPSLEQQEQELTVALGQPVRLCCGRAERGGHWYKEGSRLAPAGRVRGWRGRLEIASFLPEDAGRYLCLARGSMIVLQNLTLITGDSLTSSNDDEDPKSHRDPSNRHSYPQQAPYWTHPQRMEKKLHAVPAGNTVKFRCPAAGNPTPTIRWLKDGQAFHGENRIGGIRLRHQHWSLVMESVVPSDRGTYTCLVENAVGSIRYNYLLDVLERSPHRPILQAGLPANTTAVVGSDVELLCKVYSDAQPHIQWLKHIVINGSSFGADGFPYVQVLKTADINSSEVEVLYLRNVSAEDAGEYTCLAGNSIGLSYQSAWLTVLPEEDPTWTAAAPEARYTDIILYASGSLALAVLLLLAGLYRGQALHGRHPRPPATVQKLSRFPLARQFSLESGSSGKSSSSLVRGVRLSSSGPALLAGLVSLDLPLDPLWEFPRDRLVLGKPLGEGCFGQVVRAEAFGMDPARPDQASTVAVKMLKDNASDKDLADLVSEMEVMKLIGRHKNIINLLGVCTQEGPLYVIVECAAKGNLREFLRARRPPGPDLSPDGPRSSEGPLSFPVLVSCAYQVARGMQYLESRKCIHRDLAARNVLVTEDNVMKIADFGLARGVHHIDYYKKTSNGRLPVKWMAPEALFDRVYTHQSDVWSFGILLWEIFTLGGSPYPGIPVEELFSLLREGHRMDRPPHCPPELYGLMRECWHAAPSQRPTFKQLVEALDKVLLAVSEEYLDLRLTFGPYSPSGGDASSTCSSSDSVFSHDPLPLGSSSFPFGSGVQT

[6] = biological target: T3, Serine/threonine-protein kinase BRSK1 (Homo sapiens) (UniProt Q8TDC3); conditions: 1000 uM
T3 sequence (whole entry): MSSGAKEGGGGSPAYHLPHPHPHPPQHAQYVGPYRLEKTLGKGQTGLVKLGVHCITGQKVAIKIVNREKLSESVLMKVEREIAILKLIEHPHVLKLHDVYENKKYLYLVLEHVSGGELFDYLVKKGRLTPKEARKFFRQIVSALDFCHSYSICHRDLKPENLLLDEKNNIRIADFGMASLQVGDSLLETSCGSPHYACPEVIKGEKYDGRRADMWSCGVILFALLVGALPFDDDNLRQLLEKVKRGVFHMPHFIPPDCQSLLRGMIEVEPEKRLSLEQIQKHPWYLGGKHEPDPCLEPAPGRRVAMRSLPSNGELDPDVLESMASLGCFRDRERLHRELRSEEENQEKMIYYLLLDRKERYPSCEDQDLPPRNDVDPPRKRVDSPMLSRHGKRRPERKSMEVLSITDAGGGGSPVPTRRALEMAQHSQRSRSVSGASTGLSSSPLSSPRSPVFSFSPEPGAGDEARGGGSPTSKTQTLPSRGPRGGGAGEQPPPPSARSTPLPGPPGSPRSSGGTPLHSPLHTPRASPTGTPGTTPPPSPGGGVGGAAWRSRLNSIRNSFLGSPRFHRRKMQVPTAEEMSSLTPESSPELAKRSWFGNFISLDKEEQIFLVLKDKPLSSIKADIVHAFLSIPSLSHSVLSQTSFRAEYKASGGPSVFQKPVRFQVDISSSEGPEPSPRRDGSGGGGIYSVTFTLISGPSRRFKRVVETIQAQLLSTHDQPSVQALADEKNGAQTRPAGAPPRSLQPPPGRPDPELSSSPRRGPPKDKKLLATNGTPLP
Description: Inhibition of human full length BRSK1 expressed in baculovirus assessed as substrate phosphorylation using fluorescence-labelled peptides as substrate at 1000 uM after 90 mins by microfluidic peptide phosphorylation assay

[7] = biological target: MAP/microtubule affinity-regulating kinase 3 (Homo sapiens) (UniProt P27448); test: Inhibition of human full length c-TAK1 expressed in Escherichia coli cell assessed as substrate phosphorylation using fluorescence-labelled peptides as substrate at 420 uM after 90 mins by microfluidic peptide phosphorylation assay
MAP/microtubule affinity-regulating kinase 3 (Homo sapiens), sequence (P27448 whole entry, looked up): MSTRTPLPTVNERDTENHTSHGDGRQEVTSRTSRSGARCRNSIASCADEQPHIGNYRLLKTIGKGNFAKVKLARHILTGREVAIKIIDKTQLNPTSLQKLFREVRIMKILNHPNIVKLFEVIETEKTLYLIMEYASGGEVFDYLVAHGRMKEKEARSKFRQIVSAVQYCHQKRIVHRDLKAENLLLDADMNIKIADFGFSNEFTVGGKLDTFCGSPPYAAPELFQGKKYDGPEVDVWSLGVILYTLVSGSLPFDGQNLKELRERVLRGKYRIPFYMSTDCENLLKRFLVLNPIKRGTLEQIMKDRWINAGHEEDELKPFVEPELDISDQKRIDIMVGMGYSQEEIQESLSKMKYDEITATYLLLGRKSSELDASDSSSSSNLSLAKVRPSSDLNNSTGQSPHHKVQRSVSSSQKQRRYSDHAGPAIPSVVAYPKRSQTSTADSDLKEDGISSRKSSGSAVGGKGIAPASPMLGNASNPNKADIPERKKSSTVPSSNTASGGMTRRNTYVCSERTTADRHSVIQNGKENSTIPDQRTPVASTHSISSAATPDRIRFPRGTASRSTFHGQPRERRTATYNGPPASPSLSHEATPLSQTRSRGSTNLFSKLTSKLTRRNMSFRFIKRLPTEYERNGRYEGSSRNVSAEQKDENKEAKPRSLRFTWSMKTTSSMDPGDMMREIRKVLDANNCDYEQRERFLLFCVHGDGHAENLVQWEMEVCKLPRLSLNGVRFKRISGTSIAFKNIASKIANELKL

[8] = biological target: Protein kinase C beta type (Homo sapiens) (UniProt P05771); test: Inhibition of human full length PKC beta2 expressed in baculovirus assessed as substrate phosphorylation using fluorescence-labelled peptides as substrate at 420 uM after 90 mins by microfluidic peptide phosphorylation assay
Protein kinase C beta type (Homo sapiens), sequence (P05771 2-671 limits assumed): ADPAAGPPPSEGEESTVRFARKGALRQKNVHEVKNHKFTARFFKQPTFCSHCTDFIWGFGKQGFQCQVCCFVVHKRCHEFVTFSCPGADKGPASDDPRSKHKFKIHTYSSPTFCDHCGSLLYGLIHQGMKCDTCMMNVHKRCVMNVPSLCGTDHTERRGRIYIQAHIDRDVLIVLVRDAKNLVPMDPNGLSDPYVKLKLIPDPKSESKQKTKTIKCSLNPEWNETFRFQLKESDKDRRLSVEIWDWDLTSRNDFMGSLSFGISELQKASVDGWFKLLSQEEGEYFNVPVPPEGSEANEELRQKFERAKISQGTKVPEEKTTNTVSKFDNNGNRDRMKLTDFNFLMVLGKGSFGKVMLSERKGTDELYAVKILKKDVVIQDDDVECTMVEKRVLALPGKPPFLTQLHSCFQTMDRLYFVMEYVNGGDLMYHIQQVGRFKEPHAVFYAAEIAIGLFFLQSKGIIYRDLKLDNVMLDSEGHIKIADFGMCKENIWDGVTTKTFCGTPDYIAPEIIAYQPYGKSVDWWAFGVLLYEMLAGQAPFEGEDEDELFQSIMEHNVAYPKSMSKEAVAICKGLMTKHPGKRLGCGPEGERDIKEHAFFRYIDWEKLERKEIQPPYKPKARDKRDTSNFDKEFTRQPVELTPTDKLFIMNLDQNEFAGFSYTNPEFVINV

[9] = biological target: Serine/threonine-protein kinase pim-1 (Homo sapiens) (UniProt P11309); test: Inhibition of human full length PIM1 expressed in baculovirus assessed as substrate phosphorylation using fluorescence-labelled peptides as substrate at 420 uM after 90 mins by microfluidic peptide phosphorylation assay
Serine/threonine-protein kinase pim-1 (Homo sapiens), sequence (P11309 whole entry, looked up): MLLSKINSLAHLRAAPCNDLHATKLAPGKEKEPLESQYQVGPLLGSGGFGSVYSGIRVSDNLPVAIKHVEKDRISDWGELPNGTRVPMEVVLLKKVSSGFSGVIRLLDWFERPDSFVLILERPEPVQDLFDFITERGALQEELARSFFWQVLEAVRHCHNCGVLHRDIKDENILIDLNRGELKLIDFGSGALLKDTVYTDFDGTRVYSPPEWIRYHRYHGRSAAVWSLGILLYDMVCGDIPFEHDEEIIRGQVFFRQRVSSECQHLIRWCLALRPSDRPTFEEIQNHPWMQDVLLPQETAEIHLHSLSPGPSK

[10] = biological target: T4, Serine/threonine-protein kinase Nek2 (Homo sapiens) (UniProt P51955); test: Inhibition of human full length NEK2 expressed in baculovirus assessed as substrate phosphorylation using fluorescence-labelled peptides as substrate at 420 uM after 90 mins by microfluidic peptide phosphorylation assay
T4 sequence (whole entry): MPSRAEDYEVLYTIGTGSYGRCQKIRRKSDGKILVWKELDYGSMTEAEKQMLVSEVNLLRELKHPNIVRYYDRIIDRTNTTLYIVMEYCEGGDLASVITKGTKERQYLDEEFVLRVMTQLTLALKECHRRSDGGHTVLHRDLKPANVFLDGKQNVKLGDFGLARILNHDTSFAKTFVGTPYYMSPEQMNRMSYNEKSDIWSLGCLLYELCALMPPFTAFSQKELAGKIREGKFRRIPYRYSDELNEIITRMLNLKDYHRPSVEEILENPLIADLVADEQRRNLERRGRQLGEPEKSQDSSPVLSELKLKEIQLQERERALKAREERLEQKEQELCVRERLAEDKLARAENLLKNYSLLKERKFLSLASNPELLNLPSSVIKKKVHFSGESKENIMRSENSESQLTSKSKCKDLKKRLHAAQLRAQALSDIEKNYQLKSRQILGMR

[11] = biological target: Protein kinase C alpha type (Homo sapiens) (UniProt P17252); test: Inhibition of human truncated PKC alpha expressed in baculovirus assessed as substrate phosphorylation using fluorescence-labelled peptides as substrate at 70 uM after 90 mins by microfluidic peptide phosphorylation assay

Question: For NCCc1ccc(-c2ncnc3[nH]cnc23)cc1, which inhibition [1] is on record?
Answer: 50.5%

Question: With Clc1ccc(C2(c3ccc(-c4ncnc5[nH]cnc45)cc3)CCNCC2)cc1 as the compound, how does the inhibition [2] read?
Answer: 67%

Question: What does the source list for NCC1CCN(c2ncnc3[nH]ccc23)CC1?
Answer: inhibition [3]: 89.5%; inhibition [4]: 69%

Question: What does the source list for c1cnc2[nH]ccc2c1?
Answer: inhibition [5]: 28.5%; inhibition [6]: 22%

Question: What does the source list for c1nc(N2CCOCC2)c2nc[nH]c2n1?
Answer: inhibition [7]: 86.5%; inhibition [8]: 38%; inhibition [9]: 31.5%; inhibition [10]: 27%

Question: How did the inhibition [11] turn out when CNCc1ccc(-c2ncnc3[nH]cnc23)cc1 was run?
Answer: 56%
